ChEMBL document CHEMBL1201862, “PubChem BioAssay data set” (2004)
Active and inactive are the calls of the source.

What was measured:
[1] = M. tuberculosis H37Rv growth inhibitors, H37Rv strain (AID 1626); type: functional
[2] = potency of ADAM10 substrate cleavage blockers – biochemical, QFRET, dose response (AID 743254);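 note: ADAM10 enzyme with the DM2 quenched FRET peptide as substrate; EDANS fluorescence gain as the protease cuts the substrate; inhibitor potency against ADAM10 proteolytic activity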
[3] = target: Disintegrin and metalloproteinase domain-containing protein 17 (Homo sapiens, UniProt P78536); assay: inhibition of ADAM17 substrate cleavage – biochemical, quenched FRET substrate, counter-screen for ADAM10 exosite inhibitor project, dose response (AID 743253)
[4] = viability of HCT116 lacking mutant beta-catenin – cell-based, human colon tumor, dose response (AID 1045); type: functional;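 note: HCT116 colon tumor cells with beta catenin knocked out; cells exposed to compound for 60 hours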
[5] = viability of PTEN-deleted HCT116 cells – cell-based, HCT116 PTEN knockout, dose response (AID 1047); type: functional;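 note: HCT116 colon tumor cells with PTEN knocked out; cells exposed to compound for 60 hours before readout; potency for loss of cell viability measured by luminescence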
[6] = viability of uninfected HEp-2 cells – cell-based, HTS, cytotoxicity control for RSV inhibitor project, dose response (AID 2410); type: functional; details: human respiratory syncytial virus
[7] = target: NAD-dependent protein deacylase sirtuin-5, mitochondrial (Homo sapiens, UniProt Q9NXA8); assay: sirtuin-5 deacylation blockers, concentration series – biochemical, fluorescence imaging, cherry-pick, set 5, dose response (AID 720591);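 note: desuccinylation of succinyl peptide AMC substrate read as fluorescence after trypsin release; potency of inhibitors that lower fluorescence and may act on trypsin instead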
[8] = target: Induced myeloid leukemia cell differentiation protein Mcl-1 (Homo sapiens, UniProt Q07820); type: functional
[9] = target: T1, Leucine aminopeptidase (Plasmodium falciparum 3D7, UniProt Q8IL11); assay: P. falciparum M17LAP inhibitors, primary screen, biochemical, fluorogenic H-Leu-NHMec substrate, 1536-well (AID 1619); type: functional
T1 sequence (Q8IL11 whole entry): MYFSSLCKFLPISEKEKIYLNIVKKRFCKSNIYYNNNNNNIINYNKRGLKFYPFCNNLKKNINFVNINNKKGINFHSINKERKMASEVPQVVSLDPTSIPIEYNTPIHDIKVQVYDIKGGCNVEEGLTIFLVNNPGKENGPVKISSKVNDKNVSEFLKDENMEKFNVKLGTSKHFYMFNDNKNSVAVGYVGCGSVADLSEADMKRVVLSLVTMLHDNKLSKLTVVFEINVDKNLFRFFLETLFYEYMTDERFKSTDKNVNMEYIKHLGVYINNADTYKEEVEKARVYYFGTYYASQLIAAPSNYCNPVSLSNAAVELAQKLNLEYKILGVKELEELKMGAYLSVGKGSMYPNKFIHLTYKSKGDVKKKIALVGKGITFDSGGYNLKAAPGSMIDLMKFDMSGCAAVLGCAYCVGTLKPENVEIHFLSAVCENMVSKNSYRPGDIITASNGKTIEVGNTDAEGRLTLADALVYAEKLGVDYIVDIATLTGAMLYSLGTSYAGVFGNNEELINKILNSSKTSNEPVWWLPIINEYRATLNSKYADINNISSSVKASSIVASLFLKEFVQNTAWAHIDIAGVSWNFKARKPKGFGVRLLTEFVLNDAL

Chain of NAD-dependent protein deacylase sirtuin-5, mitochondrial (Q9NXA8 whole entry): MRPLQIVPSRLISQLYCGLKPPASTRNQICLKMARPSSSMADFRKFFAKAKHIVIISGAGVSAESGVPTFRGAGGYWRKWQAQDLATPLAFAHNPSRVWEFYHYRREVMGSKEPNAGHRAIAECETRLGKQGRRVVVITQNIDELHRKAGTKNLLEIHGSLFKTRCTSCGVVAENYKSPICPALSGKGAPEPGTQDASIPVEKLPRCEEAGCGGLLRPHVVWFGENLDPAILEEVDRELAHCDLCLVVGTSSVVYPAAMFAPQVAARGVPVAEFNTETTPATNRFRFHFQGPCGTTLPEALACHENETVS
Chain of Disintegrin and metalloproteinase domain-containing protein 17 (P78536 whole entry, the tested form may be a part): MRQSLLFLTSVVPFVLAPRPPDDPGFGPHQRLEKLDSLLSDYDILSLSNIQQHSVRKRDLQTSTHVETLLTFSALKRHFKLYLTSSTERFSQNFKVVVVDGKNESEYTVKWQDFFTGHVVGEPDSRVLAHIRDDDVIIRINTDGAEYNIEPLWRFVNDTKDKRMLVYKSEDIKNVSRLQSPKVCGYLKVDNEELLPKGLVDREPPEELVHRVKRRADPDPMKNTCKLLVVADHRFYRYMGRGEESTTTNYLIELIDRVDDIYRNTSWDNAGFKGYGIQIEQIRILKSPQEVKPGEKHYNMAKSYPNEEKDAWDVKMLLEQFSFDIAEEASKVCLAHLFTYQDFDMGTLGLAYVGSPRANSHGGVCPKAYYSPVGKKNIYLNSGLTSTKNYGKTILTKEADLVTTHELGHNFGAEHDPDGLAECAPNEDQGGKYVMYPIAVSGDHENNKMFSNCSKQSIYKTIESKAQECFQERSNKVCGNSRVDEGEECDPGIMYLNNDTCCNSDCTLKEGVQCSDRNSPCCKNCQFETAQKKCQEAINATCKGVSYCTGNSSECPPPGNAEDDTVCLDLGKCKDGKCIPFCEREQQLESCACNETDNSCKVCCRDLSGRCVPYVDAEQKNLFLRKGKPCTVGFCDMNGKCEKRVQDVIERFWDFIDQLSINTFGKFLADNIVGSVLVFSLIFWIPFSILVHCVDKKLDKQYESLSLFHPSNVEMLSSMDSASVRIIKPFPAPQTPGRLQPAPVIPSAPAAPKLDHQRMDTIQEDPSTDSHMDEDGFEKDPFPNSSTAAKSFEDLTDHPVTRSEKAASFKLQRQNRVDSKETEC
Chain of Induced myeloid leukemia cell differentiation protein Mcl-1 (Q07820 whole entry): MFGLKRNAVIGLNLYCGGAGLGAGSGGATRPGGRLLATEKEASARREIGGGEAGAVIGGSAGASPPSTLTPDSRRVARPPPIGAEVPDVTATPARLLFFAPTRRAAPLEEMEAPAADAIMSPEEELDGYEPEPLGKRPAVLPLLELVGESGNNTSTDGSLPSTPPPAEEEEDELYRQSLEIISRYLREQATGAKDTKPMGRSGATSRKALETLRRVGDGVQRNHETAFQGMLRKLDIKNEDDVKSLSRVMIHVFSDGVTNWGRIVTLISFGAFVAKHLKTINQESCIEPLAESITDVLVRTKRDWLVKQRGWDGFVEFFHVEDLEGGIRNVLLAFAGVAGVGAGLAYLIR

## CCCN(CC1CC1)C(=O)COC(=O)c1ccc2c(c1)C(=O)N(c1ccc(OCC)cc1)C2=O
[1]
  IC50: > 100 µM (active)

## CC(O)(c1ccccc1)c1nc(-c2cc3ccccc3o2)cs1 (centres undefined)
[2]
  IC50: 17.2 µM (inactive)
[3]
  IC50: > 69.5 µM (inactive)

## COc1ccc(/C=C/C(=O)c2ccc(C)c([N+](=O)[O-])c2)cc1O
[4]
  EC50: 4.65 µM (active)
[5]
  EC50: 5.39 µM (active)
[1]
  IC50: > 100 µM (active)
[6]
  CC50: 15.8 µM (active)

## CCOC(=O)c1cc(-c2cc(OC)c(OC)c(OC)c2)nc2c1c(=O)[nH]c(=O)n2Cc1ccccc1
[7]
  AC50: > 30 µM (inactive)

## COc1ccc(CCCNC(=O)C2CCC(=O)N(Cc3ccc(Cl)cc3)C2)cc1 (centres undefined)
[7]
  AC50: > 30 µM (inactive)

## COc1cc(C(=O)Nc2ccc3c(c2)C(=O)c2ccccc2C3=O)cc(OC)c1OC
[8]
  IC50: 2.77 µM (active)

## Oc1ccc(C[C@H]2CNC(=S)N2C[C@H]2CCCN2C[C@H](Cc2ccccc2)N2C[C@H](Cc3ccc(O)cc3)N(CCc3ccccc3)C2=S)cc1
[2]
  IC50: 15.1 µM (inactive)
[3]
  IC50: > 69.5 µM (inactive)

## CNC(=O)CSc1nnc(-c2ccco2)n1-c1cccc(C)c1
[7]
  AC50: > 30 µM (inactive)

## COc1ccc(-n2c(SCC(=O)Nc3ccc(C(=O)O)cc3)nnc2-c2cccs2)cc1
[9]
  IC50: 14.5 µM (active)
